These results are taken from patent publication US11813277B2, “Methods and agents for modulating inflammation” (The Regents of the University of California, priority 2018, dated 2023).

Experiment [1] concerns BMDMs. Put plainly: Basal mitochondrial respiration in intact BMDMs. Type of experiment: cell-based, mouse. On the procedure: All respirometry studies were conducted in either a Seahorse XF96 or XFe96 Analyzer. All experiments were conducted at 37° C., and at pH 7.4 (intact cells) or 7.2 (permeabilized cells and isolated mitochondria). Calculation of respiratory parameters was made according to standard protocols (Divakaruni, A. S., Paradyse, A., Ferrick, D. A., Murphy, A. N., and Jastroch, M. (2014a) Analysis and interpretation of microplate-based oxygen consumption and pH data. Meth. Enzym 547, 509-54), and all rates were corrected for non-mitochondrial respiration/background signal by subtracting the oxygen consumption rate insensitive to rotenone plus antimycin A.
Respiration in intact BMDMs was measured in medium containing 8 mM glucose, 2 mM glutamine, 2 mM pyruvate, and 5 mM HEPES. Cells were plated at 5.0×10^4 cells/well and assayed after 48 hr. When measuring the response to IL-4, cells were treated with 20 ng/mL of IL-4 24 hr. after initial plating, and respiration was measured the following day (˜48 hr after initial seeding). […]

For experiment [2], the system named is BMDMs. Description: Cellular ATP production rates from respirometry and lactate assay. It is filed as cell-based, mouse. Conditions: 200 nM rotenone, IL-4 24 hr. The method, then: Respiration in intact BMDMs was measured in medium containing 8 mM glucose, 2 mM glutamine, 2 mM pyruvate, and 5 mM HEPES. Cells were plated at 5.0×10^4 cells/well and assayed after 48 hr. When measuring the response to IL-4, cells were treated with 20 ng/mL of IL-4 24 hr. after initial plating, and respiration was measured the following day (˜48 hr after initial seeding). Respiration was measured in response to oligomycin (1 μM), FCCP (1.2 μM), and rotenone (0.2 μM) with antimycin A (1 μM).
Under conditions matching intact cell respirometry for BMDMs, the extracellular medium was harvested and lactate was analyzed as previously described (Mookerjee, S. A., Goncalves, R. L., Gerencser, A. A., Nicholls, D. G., and Brand, M. D. (2015). The contributions of respiration and glycolysis to extracellular acid production. Biochim et Biophys Acta. 1847, 171-81; Divakaruni, A. S., Wallace, M., Buren, C., Martyniuk, K., Andreyev, A. Y., Li, E., Fields, J. A., Cordes, T., Reynolds, I. J., Bloodgood, B. L., et al., (2017b) Inhibition of the mitochondrial pyruvate carrier protects from excitotoxic neuronal death. J. Cell Biol. 216, 1091-1105). […] The reaction velocity was measured after 2 min (340/460 nm excitation/emission). […]

A further experiment has as its system LCFA oxidation in BMDMs. Put plainly: 9,10-3H-palmitate oxidation (3H2O release) in BMDMs. It is filed as cell-based, mouse. Conditions: 200 nM rotenone or 200 nM antimycin A, IL-4-stimulated. The method, then:
BMDMs at day 6 of differentiation were seeded at 3×10^5 cells/well in 12 well plates in BMDM media. The next day, cells were treated in DMEM containing 25 mM glucose supplemented with 5% FBS, 2 mM L-Glutamax, 100 units/mL, 100 μg/mL penicillin/streptomycin, 1 mM of sodium pyruvate, 1 mM carnitine, and 5% v/v conditioned media containing macrophage colony stimulating factor (M-CSF) under one of 5 conditions: control, 20 ng/mL of IL-4±3 μM or 200 μM of etomoxir, or 200 nM rotenone, or 200 nM antimycin A for 24 hr. Fatty acid oxidation was measured 24 hours later as previously described (Rognstad, R. (1991) Estimation of peroxisomal and mitochondrial fatty acid oxidation in rat hepatocytes using tritiated substrates. Biochem J 279:147-150, 1991; Cha, B. S., Ciaraldi, T. P., Park, K. S., Carter, L., Mudaliar, S. R., and Henry R R. (2005) Impaired fatty acid metabolism in type 2 diabetic skeletal muscle cells is reversed by PPARgamma agonists. Am J Physiol Endocrinol Metab. 289, E151-9) following a fluid change to DMEM with components as described above except 10 mM glucose and 0.2 μCi (final concentration of 5 μM) BSA-conjugated [9,10-3H]palmitic acid. No additional IL-4 was added at the time of this fluid change, but etomoxir, rotenone and antimycin A were added, and the plates were placed in a […] incubator at 37° C. for 3 hr. After incubation, a 100 μL aliquot of the culture medium was passed over an ion-exchange resin, and the column was washed twice with 0.75 ml of water. Free fatty acids were retained by the resin, whereas the tritium hydrolyzed from radiolabeled palmitate catabolism was released as labeled water, which passes freely through the resin, and is subsequently counted for radioactivity. All data are corrected for protein content in each well. There were 3 technical replicates for each condition, and 4 biological replicates arising from 4 separate animals.

The test system of experiment [3] is M(IL-4) polarization of BMDMs. Put plainly: Flow cytometry of IL-4-associated cell surface markers in BMDMs. Type of experiment: cell-based, mouse. On the procedure: (§1) For all gene expression and flow cytometry experiments described below, day 6 BMDM were plated at 3×10^5 cell/well in 12-well plates. The next day, cells were treated with appropriate compounds (and duration as indicated in figures and below) in DMEM supplemented with 5% FBS, 2 mM L-glutamine, 100 units/mL, 100 μg/mL penicillin/streptomycin, 500 μM of sodium pyruvate and 5% v/v conditioned media containing macrophage colony stimulating factor (M-CSF).
(§2) For flow cytometry experiments involving etomoxir (FIG. 1G, FIG. 2A, FIG. 2D, FIG. 3A, FIG. 3B, FIG. 3G, FIG. 3H): BMDMs were mock-treated (media replacement only) or treated with 20 ng/mL of IL-4±3 μM or 200 μM of etomoxir for 48 hr. When measuring expression of M(IL-4)-associated genes in response to etomoxir (FIG. 1H, FIG. 2B), BMDMs were mock-treated or treated with 20 ng/mL of IL4±etomoxir as indicated for 24 hr.
(§3) For experiments involving respiratory chain inhibitors: BMDMs were mock-treated (media replacement only) or treated with 20 ng/mL of IL4±1.2 μM oligomycin (Oligo), 200 nM rotenone (Rot), 200 nM antimycin A (AntiA), 100 nM piericidin A (PierA), or 5 μM carboxyatractylate (CAT) for either 24 (FIG. 4G, FIG. 4H, FIG. 6G) or 48 hr (FIG. 4F, FIG. 7D). All inhibitors were given as co-treatments simultaneously with IL-4.
For experiments involving CoA supplementation (FIG. 10A, FIG. 10B, FIG. 10C, FIG. 10D, FIG. 10E, FIG. 9C, FIG. 9D): BMDMs were mock-treated (media replacement only) or treated with 20 ng/mL of IL4±etomoxir (concentration indicated in figures)±CoA (concentration indicated in figures) for 48 hr. Etomoxir and CoA were given as co-treatments simultaneously with IL-4.
Prior to FACS analysis, BMDMs were detached using 350 μL of Accutase, followed by two washes with FACS buffer (PBS+1% (v/v) BSA+0.05% (w/v) sodium azide). Anti-mouse CD16/32 antibody was used at a dilution of 1:500, while all other antibodies were used at a dilution of 1:250. All flow cytometry data were captured using BD FACSVerse flow cytometer and analyzed using the FlowJo X 10.0.7r2 software. In all, 2×104 live events were acquired for each sample (gated on DAPIneg). For analysis, CD206+/CD71+ and CD206+/CD301+ populations were gated based on Fluorescence Minus One (FMO) controls.

Experiment [4] has as its system Relma, Mgl2, Ym1, Fabp4, Arg1 expression. Description: qPCR of IL-4-associated genes in BMDMs. Type of experiment: cell-based, mouse. Conditions: IL-4, 24 hr. On the procedure:
as §1, §2, §3
RNA was isolated with TRIzol, then cDNA was synthesized with high-capacity cDNA reverse transcription kit. KAPA SYBR FAST qPCR Master Mix kit and a LightCycler 480 were used for quantitative RT-PCR. Fold change related to the control group was calculated using […] with 36b4 as the reference gene.
(In general: Quantitative PCR measures a nucleic acid by following its amplification.)

The subject of a further experiment is acute liver injury. Put plainly: Murine acute liver injury model. Type of experiment: in vivo.
The subject of experiment [5] is BMDMs. Description: Intracellular free coenzyme A levels in BMDMs. Type of experiment: cell-based, mouse. Conditions: IL-4. On the procedure:
On Day 6 of differentiation, BMDMs were seeded at 1.2×10^6 cells/well in 6-well plates. 24 hr later, BMDMs were mock-treated or co-treated with 20 ng/mL IL-4±200 μM etomoxir±500 μM CoA in DMEM supplemented with 5% FBS, 2 mM L-glutamine, 100 units/mL, […] penicillin/streptomycin, 500 μM of sodium pyruvate and 5% v/v conditioned media containing macrophage colony stimulating factor (M-CSF) for 20 hr. Prior to sample collections, cells were washed with 600 μL of 0.9% (w/v) NaCl twice. Three wells per replicate per treatment were combined in 2 mL centrifuge tubes and centrifuged at 500 g for 5 mins at 4° C. The supernatant was removed, and the cell pellet was re-suspended in 75 μL of ice-cold 0.7% (v/v) perchloric acid for 5 min. Samples were then centrifuged at 10,000 g for 7 mins at 4° C. and the resulting supernatant was adjusted to pH 7 with 2M NaOH and 500 mM K2HPO4. The coenzyme A concentration was determined with Coenzyme A Assay Kit following manufacturer's instructions (Sigma MAK034) using 40 μL of sample supernatant. Coenzyme A levels were normalized to total cellular protein (BCA method).

The next experiment has as its system Limonoids sigmodontis. Description: Murine model of nematode infection. Conditions: mouse, in vivo.
A further experiment deals with diet-induced NASH. Put plainly: Rat model of diet-induced NASH. Type of experiment: in vivo.
The mark [6] stands for this setting: 500 μM CoA, absence of etomoxir.

For the molecule `C=C(C)[C@H]1Cc2c(ccc3c2O[C@@H]2COc4cc(OC)c(OC)cc4[C@@H]2C3=O)O1` [rotenone], in the experiment on BMDMs [1] (1.2 μM oligomycin, 200 nM rotenone, 200 nM antimycin A, 100 nM piericidin A, 5 μM CAT), the “respiration at 24 hr” value was “strongly reduced respiration”. Also, in the experiment on BMDMs [2], the “ATP production from oxidative phosphorylation” value was “limited ATP production from oxidative phosphorylation” and the “overall rates of energy metabolism (ATP production)” value is recorded as “maintain overall rates of energy metabolism”. Also, the “3H2O release from 9,10-3H-palmitate” value in the experiment with LCFA oxidation in BMDMs is on record as “suppressed LCFA oxidation to levels in line with 200 μM etomoxir”. For the same molecule, in [3] (oxidative phosphorylation inhibitors co-treated with IL-4), the “population of CD206+/CD71+ cells” value was “none of the inhibitors of ATP synthesis or the electron transport chain significantly lowered”. The “IL-4-induced expression of Relma, Ym1, Mgl2” value in experiment [4] (electron transport chain inhibitors) is reported as “failed to reduce”. Further, the “expression of Ym1 and Arg1” value in [4] (mitochondrial inhibitors) is on record as “increased expression”.
`CC(C)(COP(=O)(O)OP(=O)(O)OC[C@H]1O[C@@H](n2cnc3c(N)ncnc32)[C@H](O)[C@@H]1OP(=O)(O)O)[C@@H](O)C(=O)NCCC(=O)NCCS` [CoA, [(2R,3S,4R,5R)-5-(6-aminopurin-9-yl)-4-hydroxy-3-phosphonooxy-oxolan-2-yl]methyl [hydroxy-[(3R)-3-hydroxy-2,2-dimethyl-4-oxo-4-[[3-oxo-3-(2-sulfanylethylamino)propyl]amino]butoxy]phosphoryl] hydrogen phosphate]: the basal respiration result in the experiment on BMDMs [1] (CoA supplementation, BMDMs treated with excess etomoxir) was “did not alter basal respiration”. For the same molecule, the oxygen consumption entry in the experiment on BMDMs [1] (CoA with IL-4) was “does not enhance oxygen consumption”. Also, in the experiment with acute liver injury (intravenous), the “healing time and resolution of injury” value was “decrease healing time and improve the extent of resolution from the injury”. In the experiment on acute liver injury (peritoneal macrophages and/or Kupffer cells), the “expression of alternative liver macrophage activation biomarkers” value is recorded as “Increased expression”. For the same molecule, the “rescue of cell surface marker expression” value in experiment [3] (200 μM etomoxir, varying CoA) is listed as “concentration-dependent function of exogenously added CoA”. In experiment [3] (500 μM CoA with 200 μM etomoxir, IL-4), the “reduction of CD206+/CD71+ cells upon etomoxir treatment” value is given as “can be rescued”. Besides, the “IL-4-induced expression of CD206 and CD71” value in experiment [3] (setting [6]) is listed as “significantly increased”. Moreover, the polarization result in experiment [3] (CoA, absence of IL-4) is on record as “no effect on polarization”. Also, the “etomoxir-induced reduction in CD206+/CD71+ cells” value in [3] (LysM-Cre Cpt1a-/-, LysM-Cre Cpt2-/-, CD11c-Cre Cpt1a-/- BMDMs, 200 μM etomoxir, 500 μM CoA) was “could be rescued”. Further, the results for the “intracellular free CoA levels” value with BMDMs [5] (500 μM CoA with 200 μM etomoxir) and in the experiment on BMDMs [5] (setting [6]) were “could be restored” and “significantly increased”, respectively. For the same molecule, in the experiment with Limonoids sigmodontis, the “parasite burden and replication” value was “reduce parasite burden and replication”.
As to `CC(CNC(=O)[C@H](O)C(C)(C)CO)C(=O)NCCc1ccccc1` (stereo partly drawn) [alpha-methyl-N-phenethyl-pantothenamide], the “expression of alternative macrophage activation biomarkers” value in the experiment with diet-induced NASH (Kupffer cells and/or myeloid-derived precursors from the liver) is “Decreased expression”. For the same molecule, the “inflammation and fibrosis in the liver” value with diet-induced NASH (intravenous) was “reduce inflammation and fibrosis in the liver”.
